# Experimental data as given in US7638556B2, “Freeze-dried product of N-[o-(p-pivaloyloxy benzenesulfonylamino)benzoyl]glycine monosodium salt tetra-hydrate and a process for the manufacture thereof” (Ono Pharmaceutical Co., Ltd., priority 2000, dated 2009).
# Read-outs that look alike come from different tables or passages of the source.
# How the values were obtained:
# [1] = solubility of compound (I) in water or ethanol; format: physicochemical
# Method: However, compound (I) is hardly soluble in water or ethanol; the solubility is 0.4 mg/ml in water, and 6.0 mg/ml in ethanol. Therefore, by normal solvents it is difficult to prepare a clear solution for the process of a high-dosage freeze-dried product.
# Compound (I) has, as shown above, a very low solubility; 0.4 mg/ml in water, 6.0 mg/ml in ethanol. In order to obtain a freeze-dried product to prepare a high-dosage product of this compound, it is necessary to improve the solubility.
# [2] = solubility in mixed solvent of ethanol and water by titration until completely dissolved (Example 1); format: physicochemical; conditions: thermodynamic from solid
# Method: By the following method, the concentration of compound (I) was measured when compound (I) was completely dissolved in various ratios of mixed solvent comprising water and ethanol.
# Above mixed solvent was titrated with various added volume for compound (I) and the mixture was vigorously stirred and was left alone for several minutes.
# The above operation was done repeatedly until confirming that the solute was completely dissolved by visual recognition.
# Solubility A was given by dividing the amount of solute (mg) with the volume of added solvent (ml) when the solute was completely dissolved; and solubility B was given by dividing the amount of solute with the volume of added solvent before the solute was completely dissolved (mg).
# It is judged that the solubility of compound (I) to mixed solvent of ethanol and water is between solubility A and solubility B.
# [3] = prior freeze-dried product method using sodium carbonate and water; cited from earlier work
# elastase = biological target: T1, elastase (Homo sapiens, UniProt P08246); conditions: cited from earlier work
# T1 sequence (P08246 30-267): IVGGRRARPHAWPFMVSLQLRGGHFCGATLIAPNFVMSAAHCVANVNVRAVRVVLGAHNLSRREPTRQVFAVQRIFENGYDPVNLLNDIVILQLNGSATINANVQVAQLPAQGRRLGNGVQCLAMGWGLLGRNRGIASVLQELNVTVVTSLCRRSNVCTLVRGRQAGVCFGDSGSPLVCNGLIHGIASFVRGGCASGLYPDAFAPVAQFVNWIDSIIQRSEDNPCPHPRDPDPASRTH
smiles,measurement,setting,value
"CC(C)(C)C(=O)Oc1ccc(S(=O)(=O)Nc2ccccc2C(=O)NCC(=O)[O-])cc1.[Na+] [compound (I), N-[o-(p-pivaloyloxybenzenesulfonylamino)benzoyl]glycine monosodium salt tetra-hydrate]",solubility,[1]; in water,400 µg/mL
same,solubility,"[1]; organic solvent or mixture, in ethanol",6000 µg/mL
same,solubility,"[2]; aqueous with cosolvent or surfactant or cyclodextrin, ratio of ethanol 10 vol %, read-out: solubility A",0.83 mg/mL
same,solubility,"[2]; aqueous with cosolvent or surfactant or cyclodextrin, ratio of ethanol 10 vol %, read-out: solubility B",0.91 mg/mL
same,solubility,"[2]; aqueous with cosolvent or surfactant or cyclodextrin, ratio of ethanol 15 vol %, read-out: solubility A",0.91 mg/mL
same,solubility,"[2]; aqueous with cosolvent or surfactant or cyclodextrin, ratio of ethanol 15 vol %, read-out: solubility B",1 mg/mL
same,solubility,"[2]; aqueous with cosolvent or surfactant or cyclodextrin, ratio of ethanol 20 vol %, read-out: solubility A",1.43 mg/mL
same,solubility,"[2]; aqueous with cosolvent or surfactant or cyclodextrin, ratio of ethanol 20 vol %, read-out: solubility B",1.67 mg/mL
same,solubility,"[2]; aqueous with cosolvent or surfactant or cyclodextrin, ratio of ethanol 25 vol %, read-out: solubility A",1.67 mg/mL
same,solubility,"[2]; aqueous with cosolvent or surfactant or cyclodextrin, ratio of ethanol 25 vol %, read-out: solubility B",2 mg/mL
same,solubility,"[2]; aqueous with cosolvent or surfactant or cyclodextrin, ratio of ethanol 30 vol %, read-out: solubility A",100 mg/mL
same,solubility,"[2]; aqueous with cosolvent or surfactant or cyclodextrin, ratio of ethanol 30 vol %, read-out: solubility B",125 mg/mL
same,solubility,"[2]; aqueous with cosolvent or surfactant or cyclodextrin, ratio of ethanol 40 vol %, read-out: solubility A",125 mg/mL
same,solubility,"[2]; aqueous with cosolvent or surfactant or cyclodextrin, ratio of ethanol 40 vol %, read-out: solubility B",167 mg/mL
same,solubility,"[2]; aqueous with cosolvent or surfactant or cyclodextrin, ratio of ethanol 50 vol %, read-out: solubility A",167 mg/mL
same,solubility,"[2]; aqueous with cosolvent or surfactant or cyclodextrin, ratio of ethanol 50 vol %, read-out: solubility B",250 mg/mL
same,solubility,"[2]; aqueous with cosolvent or surfactant or cyclodextrin, ratio of ethanol 60 vol %, read-out: solubility A",167 mg/mL
same,solubility,"[2]; aqueous with cosolvent or surfactant or cyclodextrin, ratio of ethanol 60 vol %, read-out: solubility B",250 mg/mL
same,solubility,"[2]; aqueous with cosolvent or surfactant or cyclodextrin, ratio of ethanol 70 vol %, read-out: solubility A",125 mg/mL
same,solubility,"[2]; aqueous with cosolvent or surfactant or cyclodextrin, ratio of ethanol 70 vol %, read-out: solubility B",167 mg/mL
same,solubility,"[2]; aqueous with cosolvent or surfactant or cyclodextrin, ratio of ethanol 80 vol %, read-out: solubility A",125 mg/mL
same,solubility,"[2]; aqueous with cosolvent or surfactant or cyclodextrin, ratio of ethanol 80 vol %, read-out: solubility B",167 mg/mL
same,solubility,"[2]; aqueous with cosolvent or surfactant or cyclodextrin, ratio of ethanol 90 vol %, read-out: solubility A",50 mg/mL
same,solubility,"[2]; organic solvent or mixture, mixed solvent ethanol/water=3.0/7.0~8.0/2.0 (v/v), read-out: solubility",≥ 80 mg/mL
same,solubility,"[2]; organic solvent or mixture, ratio of ethanol 90 vol %, read-out: solubility B",55.6 mg/mL
same,solubility,"[2]; organic solvent or mixture, ratio of ethanol 100 vol %, read-out: solubility A",5 mg/mL
same,solubility,"[2]; organic solvent or mixture, ratio of ethanol 100 vol %, read-out: solubility B",5.56 mg/mL
same,solubility,"[2]; water, ratio of ethanol 0 vol %, read-out: solubility A",0.22 mg/mL
same,solubility,"[2]; water, ratio of ethanol 0 vol %, read-out: solubility B",0.23 mg/mL
same,solubility,[3],< 80 mg/mL
same,inhibitory activity against elastase,elastase,inhibitory activity against elastase
